In US11254663B2 (BRISTOL-MYERS SQUIBB COMPANY, priority 2019, dated 2022) one finds EC50 data, which are given here for 10 compounds.

The experiment has as its target FXR (Homo sapiens (Human), UniProt Q96RI1). Kind of experiment: FXR EC50 (FXR agonist potency reported with each Example). The format is cell-based.

Sequence of FXR (Q96RI1 262-486): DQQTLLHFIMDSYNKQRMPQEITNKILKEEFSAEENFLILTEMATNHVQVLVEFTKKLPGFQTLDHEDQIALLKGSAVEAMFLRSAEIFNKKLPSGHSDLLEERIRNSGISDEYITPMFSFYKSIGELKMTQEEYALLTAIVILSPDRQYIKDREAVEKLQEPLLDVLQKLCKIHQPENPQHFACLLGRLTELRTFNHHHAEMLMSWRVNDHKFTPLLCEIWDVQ

As for `O=C(N(CC12CCC(c3nc(C4CC4)no3)(CC1)CC2)c1cccc(-c2cnn(-c3cccnc3)c2)c1)C12CC(F)(C1)C2` [Example 152, N-((4-(3-cyclopropyl-1,2,4-oxadiazol-5-yl)bicyclo[2.2.2]octan-1-yl)methyl)-3-fluoro-N-(3-(1-(pyridin-3-yl)-1H-pyrazol-4-yl)phenyl)bicyclo[1.1.1]pentane-1-carboxamide], the EC50 was 162 nM. That is a sub-micromolar value. The value for `O=C(C1CCC1)N(CC12CCC(c3nc(C4CC4)no3)(CC1)CC2)c1cccc(-c2nc(CC3CC3)no2)c1` [Example 66, N-((4-(3-cyclopropyl-1,2,4-oxadiazol-5-yl)bicyclo[2.2.2]octan-1-yl)methyl)-N-(3-(3-(cyclopropylmethyl)-1,2,4-oxadiazol-5-yl)phenyl)cyclobutanecarboxamide] was 303 nM.

Compound `O=C(N(CC12CCC(c3noc(C(F)F)n3)(CC1)CC2)c1cccc(-c2noc(C(F)F)n2)c1)C12CC(F)(C1)C2` [Example 184, N-((4-(5-(difluoromethyl)-1,2,4-oxadiazol-3-yl)bicyclo[2.2.2]octan-1-yl)methyl)-N-(3-(5-(difluoromethyl)-1,2,4-oxadiazol-3-yl)phenyl)-3-fluorobicyclo[1.1.1]pentane-1-carboxamide] yielded a concentration for a half-maximal effect (EC50) of 58 nM. The value for `Cn1nc(C23CCC(CN(C(=O)C45CC(F)(C4)C5)c4cccc(-c5nc(C6CC6)no5)c4)(CC2)CC3)cc1C1CC1` [Example 124, N-(3-(3-cyclopropyl-1,2,4-oxadiazol-5-yl)phenyl)-N-((4-(5-cyclopropyl-1-methyl-1H-pyrazol-3-yl)bicyclo[2.2.2]octan-1-yl)methyl)-3-fluorobicyclo[1.1.1]pentane-1-carboxamide] was 89 nM; that for `COc1cc(-c2cccc(N(CC34CCC(c5ccc(C(C)(C)C#N)cc5)(CC3)OC4)C(=O)C34CC(F)(C3)C4)c2)ccn1` [Example 222, N-((1-(4-(2-cyanopropan-2-yl)phenyl)-2-oxabicyclo[2.2.2]octan-4-yl)methyl)-3-fluoro-N-(3-(2-methoxypyridin-4-yl)phenyl)bicyclo[1.1.1]pentane-1-carboxamide] was 285 nM. Next, `O=C(N(CC12CCC(c3ccc(C(F)(F)F)cn3)(CC1)CC2)c1cccc(-c2noc(C3CC3)n2)c1)C12CC(F)(C1)C2` [Example 185, N-(3-(5-cyclopropyl-1,2,4-oxadiazol-3-yl)phenyl)-3-fluoro-N-((4-(5-(trifluoromethyl)pyridin-2-yl)bicyclo[2.2.2]octan-1-yl)methyl)bicyclo[1.1.1]pentane-1-carboxamide]: 508 nM; `CC1(c2nc(C34CCC(CN(C(=O)C56CC(F)(C5)C6)c5cccc(-c6nnc(C7CC7)o6)c5)(CC3)CC4)no2)CC1` [Example 154, N-(3-(5-cyclopropyl-1,3,4-oxadiazol-2-yl)phenyl)-3-fluoro-N-((4-(5-(1-methylcyclopropyl)-1,2,4-oxadiazol-3-yl)bicyclo[2.2.2]octan-1-yl)methyl) bicyclo[1.1.1]pentane-1-carboxamide]: 27 nM; `CC(C)c1nc(C23CCC(CN(C(=O)C45CC(F)(C4)C5)c4cccc(-c5nc(C6CC6)no5)c4)(CC2)CC3)no1` [Example 120, N-(3-(3-cyclopropyl-1,2,4-oxadiazol-5-yl)phenyl)-3-fluoro-N-((4-(5-isopropyl-1,2,4-oxadiazol-3-yl)bicyclo[2.2.2]octan-1-yl)methyl)bicyclo[1.1.1]pentane-1-carboxamide]: 15 nM. The compound `CC(N(C(=O)C12CC(F)(C1)C2)c1cccc(-c2cnc(C3CC3)o2)c1)C12CCC(c3nc(C4CC4)no3)(CC1)CC2` (single isomer, unassigned) [Example 216, N-(1-(4-(3-cyclopropyl-1,2,4-oxadiazol-5-yl)bicyclo[2.2.2]octan-1-yl)ethyl)-N-(3-(2-cyclopropyloxazol-5-yl)phenyl)-3-fluorobicyclo[1.1.1]pentane-1-carboxamide] came in with an EC50 of 511 nM. The value for `O=C(N(CC12CCC(c3nc(C4CC4)no3)(CC1)OC2)c1cccc(-c2noc(C3CC3)n2)c1)C12CC(F)(C1)C2` [Example 203] was 74 nM.

One may read the EC50 as the concentration needed to bring the measured effect to its halfway point. The low end stands for greater potency, the high end for weaker potency.
